Measured values taken from patent publication US7528164B2, “Substituted 4-aryl-4h-pyrrolo[2,3-h]chromenes and analogs as activators of caspases and inducers of apoptosis and the use thereof” (Cytovia, Inc., priority 2002, dated 2009).
Like-named read-outs stand apart in the source and are kept apart here.

Tests used:
T-47D = assay: Caspase cascade activation assay in T-47D cells (N-(Ac-DEVD)-N'-ethoxycarbonyl-R110 fluorogenic substrate); format: cell-based; details: T-47D human breast cancer cells, 24 h incubation; for EC50: sigmoidal dose-response, read-out: Caspase potency EC50; for Caspase activity (Ratio): ratio of net RFU of test compound to control
Protocol: (§1) Human breast cancer cell lines T-47D and ZR-75-1 were grown according to media component mixtures designated by American Type Culture Collection+10% FCS (Invitrogen Corporation), in a 5% CO2-95% humidity incubator at 37° C. T-47D and ZR-75-1 cells were maintained at a cell density between 30 and 80% confluency at a cell density of 0.1 to 0.6×10^6 cells/mL. Cells were harvested at 600×g and resuspended at 0.65×10^6 cells/mL into appropriate media+10% FCS. An aliquot of 45 μl of cells was added to a well of a 96-well microtiter plate containing 5 μl of a 10% DMSO in RPMI-1640 media solution containing about […] of 2-amino-3-cyano-4-(5-methyl-pyridin-3-yl)-7-methyl-4H-pyrrolo[2,3-h]chromene (Example 10) or other test compound (0.016 to 1 μM final). An aliquot of 45 μl of cells was added to a well of a 96-well microtiter plate containing 5 μl of a 10% DMSO in RPMI-1640 media solution without test compound as the control sample. The samples were mixed by agitation and then incubated at 37° C. for 24 h in a 5% CO2-95% humidity incubator. After incubation, the samples were removed from the incubator and 50 μl of a solution containing 20 μM of N-(Ac-DEVD)-N′-ethoxycarbonyl-R110 (SEQ ID No:1) fluorogenic substrate (Cytovia, Inc.; U.S. Pat. No. 6,335,429), 20% sucrose (Sigma), 20 mM DTT (Sigma), 200 mM NaCl (Sigma), 40 mM Na PIPES buffer pH 7.2 (Sigma), and 500 μg/ml lysolecithin (Calbiochem) was added. The samples were mixed by agitation and incubated at room temperature. Using a fluorescent plate reader (Model 1420 Wallac Instruments), an initial reading (T=0) was made approximately 1-2 min after addition of the substrate solution, employing excitation at 485 nm and emission at 530 nm, to determine the background fluorescence of the control sample. After the 3 h incubation, the samples were read for fluorescence as above (T=3 h).
(§2) The Relative Fluorescence Unit values (RFU) were used to calculate the sample readings as follows: RFU(T=3h)−Control RFU(T=0)=Net RFU(T=3h) The activity of caspase cascade activation was determined by the ratio of the net RFU value for 2-amino-3-cyano-4-(5-methyl-pyridin-3-yl)-7-methyl-4H-pyrrolo[2,3-h]chromene or other test compound to that of control samples. The EC50 (nM) was determined by a sigmoidal dose-response calculation (Prism 2.0, GraphPad Software Inc.).

ZR-75-1 = assay: Caspase cascade activation assay in ZR-75-1 cells (N-(Ac-DEVD)-N'-ethoxycarbonyl-R110 fluorogenic substrate); format: cell-based; details: ZR-75-1 human breast cancer cells, 24 h incubation; for Caspase activity (Ratio): ratio of net RFU of test compound to control; for EC50: sigmoidal dose-response, read-out: Caspase potency EC50
Protocol: as §1, §2

COc1cccc(C2C(C#N)=C(N)Oc3c2ccc2c3ccn2C)c1 (centres unmarked) [Example 28, 2-Amino-3-cyano-4-(3-methoxyphenyl)-7-methyl-4H-pyrrolo[2,3-h]chromene]
EC50 (T-47D; T47D): 7.2 nM
Caspase activity (Ratio) (T-47D): 4.6
Caspase activity (Ratio) (ZR-75-1): 6.3
EC50 (ZR-75-1): 3.3 nM

Cn1ccc2c3c(ccc21)C(c1cccc(Br)c1)C(C#N)=C(N)O3 (centres unmarked) [Example 29, 2-Amino-3-cyano-4-(3-bromophenyl)-7-methyl-4H-pyrrolo[2,3-h]chromene]
EC50 (T-47D; T47D): 12 nM
Caspase activity (Ratio) (T-47D): 3.3
Caspase activity (Ratio) (ZR-75-1): 6.3
EC50 (ZR-75-1): 5.7 nM

Cn1ccc2c3c(ccc21)C(c1cc(F)cc(F)c1)C(C#N)=C(N)O3 (centres unmarked) [Example 30, 2-Amino-3-cyano-4-(3,5-difluorophenyl)-7-methyl-4H-pyrrolo[2,3-h]chromene]
EC50 (T-47D; T47D): 7.3 nM
Caspase activity (Ratio) (T-47D): 3.6
Caspase activity (Ratio) (ZR-75-1): 5.6
EC50 (ZR-75-1): 3.4 nM

COc1cc(C2C(C#N)=C(N)Oc3c2ccc2c3ccn2C)cc(I)c1OC (centres unmarked) [Example 31, 2-Amino-3-cyano-4-(4,5-dimethoxy-3-iodophenyl)-7-methyl-4H-pyrrolo[2,3-h]chromene]
EC50 (T-47D; T47D): 4.9 nM
Caspase activity (Ratio) (T-47D): 6.3
Caspase activity (Ratio) (ZR-75-1): 4.3
EC50 (ZR-75-1): 3.7 nM

Cn1ccc2c3c(ccc21)C(c1cccc(C#N)c1)C(C#N)=C(N)O3 (centres unmarked) [Example 32, 2-Amino-3-cyano-4-(3-cyanophenyl)-7-methyl-4H-pyrrolo[2,3-h]chromene]
EC50 (T-47D; T47D): 6.9 nM
Caspase activity (Ratio) (T-47D): 5.3
Caspase activity (Ratio) (ZR-75-1): 3.6
EC50 (ZR-75-1): 2.9 nM

COc1cc(C2C(C#N)=C(N)Oc3c2ccc2c3ccn2CO)cc(OC)c1OC (centres unmarked) [Example 33, 2-Amino-3-cyano-4-(3,4,5-trimethoxyphenyl)-7-hydroxymethyl-4H-pyrrolo[2,3-h]chromene]
EC50 (T-47D; T47D): 6.2 nM
Caspase activity (Ratio) (T-47D): 4.3
Caspase activity (Ratio) (ZR-75-1): 3.0
EC50 (ZR-75-1): 3.3 nM

COc1cc(OC)cc(C2C(C#N)=C(N)Oc3c2ccc2c3ccn2CO)c1 (centres unmarked) [Example 34, 2-Amino-3-cyano-4-(3,5-dimethoxyphenyl)-7-hydroxymethyl-4H-pyrrolo [2,3-h]chromene]
EC50 (T-47D; T47D): 7.1 nM
Caspase activity (Ratio) (T-47D): 3.3
Caspase activity (Ratio) (ZR-75-1): 3.9
EC50 (ZR-75-1): 6.5 nM

CN1CCc2c1ccc1c2OC(N)=C(C#N)C1c1cc(F)cc(F)c1 (centres unmarked) [Example 35, 2-Amino-3-cyano-4-(3,5-difluorophenyl)-8,9-dihydro-7-methyl-4H-pyrrolo [2,3-h]chromene]
EC50 (T-47D; T47D): 28 nM
Caspase activity (Ratio) (T-47D): 4.3
Caspase activity (Ratio) (ZR-75-1): 5.5
EC50 (ZR-75-1): 10 nM

Cc1cncc(C2C(C#N)=C(N)Oc3c2ccc2c3CCN2C)c1 (centres unmarked) [Example 36, 2-Amino-4-(5-methyl-pyridin-3-yl)-3-cyano-7-methyl-8,9-dihydro-4H-pyrrolo[2,3-h]chromene]
EC50 (T-47D; T47D): 13 nM
Caspase activity (Ratio) (T-47D): 4.6
Caspase activity (Ratio) (ZR-75-1): 6.3
EC50 (ZR-75-1): 5 nM

Cn1ccc2c3c(ccc21)C(c1ccc([N+](=O)[O-])s1)C(C#N)=C(N)O3 (centres unmarked) [Example 37, 2-Amino-4-(5-nitro-thiophene-2-yl)-3-cyano-7-methyl-4H-pyrrolo[2,3-h]chromene]
EC50 (T-47D; T47D): > 100 nM
Caspase activity (Ratio) (T-47D): 2.0
Caspase activity (Ratio) (ZR-75-1): 6.7
EC50 (ZR-75-1): 36 nM

CCC=CCC=CCC=CCC=CCC=CCC=CCCC(=O)OCn1ccc2c3c(ccc21)C(c1cc(Br)c(OC)c(OC)c1)C(C#N)=C(N)O3 (centres unmarked) [Example 38, 4,7,10,13,16,19-Docosahexaenoic acid {2-Amino-4-(3-bromo-4,5-dimethoxy-phenyl)-3-cyano-4H-pyrrolo[2,3-h]chromene}-7-ylmethyl ester]
Caspase activity (Ratio) (T-47D): 5.2
EC50 (T-47D): 55 nM
Caspase activity (Ratio) (ZR-75-1): 6.9
EC50 (ZR-75-1): 29 nM
